From patent publication US20080306067A1, “Modulators of Chemokine Receptor Activity” (priority 2005, published 2008)

Key:
[1] = target: alpha-1 adrenergic receptor; experiment: alpha-1 adrenergic receptor radioligand binding assay ([125I]-HEAT, rat cerebral cortex membranes); details: radioligand used at 40 pM
Protocol: The inhibitory properties of the compounds of the present invention on binding of the alpha-1 adrenergic receptor can be determined in the following assay:
Cerebral cortices from male Sprague-Dawley rats (175-200 g) are dissected and homogenised in 10 volumes of ice cold 0.32 M sucrose (containing 1 mM MgCl2 dihydrate and 1 mM K2HPO4) with a glass/Teflon homogeniser. The membranes are centrifuged at 1000×g for 15 minutes, the pellet discarded and the centrifugation repeated. The supernatants are pooled and centrifuged at 18,000×g for 15 minutes. The pellet is osmotically shocked in 10 volumes of H2O and kept on ice for 30 minutes. The suspension is centrifuged at 39,000×g for 20 minutes, resuspended in Krebs-Henseleit buffer pH 7.4 (1.17 mM MgSO4 anhydrous, 4.69 mM KCl, 0.7 mM K2HPO4 anhydrous, 0.11 M NaCl, 11 mM D-glucose and 25 mM NaHCO3) containing 20 mM Tris, and kept for 2 days at −20° C. […]
The resulting membranes are subjected to a radioligand binding assay. […] Following drying of the plates for 3 h. at 50° C., 40 μl of Microscint 20 is added to each well, the plates incubated at room temperature for a further 20 minutes and the retained radioactivity quantified in a Packard TopCount NXT™ scintillation counter. […]

human CCR-3 = target: T1, human CCR-3 (Homo sapiens, UniProt P51677); experiment: binding of [125I]-human eotaxin to human CCR-3 (SPA, membranes of RBL-2H3 cells expressing CCR3); details: 4 hours at room temperature, read-out: IC50 (inhibition of binding of eotaxin to CCR-3)
T1 construct: expressed in transfected cells; membrane preparation
T1 sequence (P51677 1-355): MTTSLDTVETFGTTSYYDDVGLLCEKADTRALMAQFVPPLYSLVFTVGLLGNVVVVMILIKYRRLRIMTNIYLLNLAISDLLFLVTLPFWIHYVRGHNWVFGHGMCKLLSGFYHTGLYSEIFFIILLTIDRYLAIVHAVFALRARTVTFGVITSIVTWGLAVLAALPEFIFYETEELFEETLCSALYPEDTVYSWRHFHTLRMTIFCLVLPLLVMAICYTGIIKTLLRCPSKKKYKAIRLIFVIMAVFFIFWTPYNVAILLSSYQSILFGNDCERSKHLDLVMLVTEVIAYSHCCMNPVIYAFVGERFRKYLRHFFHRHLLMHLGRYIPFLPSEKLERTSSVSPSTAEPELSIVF
Protocol: In this assay the effect of the compounds of the present invention on the binding of human eotaxin to human CCR-3 is determined. Recombinant cells expressing human CCR-3 are captured by wheatgerm agglutinin (WGA) polyvinyltoluidene (PVT) SPA beads (available from Amersham), through a specific interaction between the WGA and carbohydrate residues of glycoproteins on the surface of the cells. [^125I]-human eotaxin (available from Amersham) binds specifically to CCR-3 receptors bringing the [^125I]-human eotaxin in close proximity to the SPA beads. Emitted â-particles from the [^125I]-human eotaxin excite, by its proximity, the fluorophore in the beads and produce light.
Preparation of Assay Buffer. 5.96 g HEPES and 7.0 g sodium chloride are dissolved in distilled H2O and 1M aq. CaCl2 (1 ml) and 1M aq. MgCl2 (5 ml) are added. The pH is adjusted to 7.6 with NaOH and the solution made to a final volume of 1 L using distilled H2O. 5 g of bovine serum albumin and 0.1 g NaN3 are dissolved in the solution and the resulting buffer stored at 4° C. […]
The assay is performed in a final volume of 250 μl per well of an Optiplate™ microplate (ex Canberra Packard). […] The resulting scintillations are counted using a Canberra Packard TopCount™ scintillation counter, each well being counted for 1 minute. […]

Row | SMILES | Kd [1] [nM] | IC50 (human CCR-3) [nM]
1 | O=C1c2ccccc2CCC1CNCCc1ccc(O)c(I)c1 (centres unmarked) [[^125I]-HEAT] | 0.0589 ± 0.0187 | –
2 | CN(CCCCNC(=O)Nc1cccc(-c2nnnn2C)c1)Cc1ccc(F)cc1 [Example 1, 1-{4-[(4-Fluorobenzyl)-methylamino]butyl}-3-[3-(1-methyl-1H-tetrazol-5-yl)phenyl]-urea] | – | ~6
